Experimental findings from patent US9540357B1, “15-aryl prostaglandins as EP4 agonists, and methods of use thereof” (Allergan, Inc., priority 2014, dated 2017) are described below.

The structures appear in SMILES notation. Where “and” joins values, the source holds several entries; their conditions need not be identical. Equal entries are not always repeated.

Assay [1] addresses T1, EP4 (Homo sapiens (Human), UniProt P35408). The assay is described as follows: cAMP assay, EP4. Format: cell-based. The following applies: HEK-EBNA cells expressing EP4. Here is the method: A 384-well drug plate was prepared to contain 6 test compounds, PGE2 and cAMP in 16 serial dilutions in triplicate, using a Biomek station. HEK-EBNA cells expressing a target PG receptor subtype (EP2 or EP4) were suspended in a stimulation buffer (HBSS, 0.1% BSA, 0.5 mM IBMX and 5 mM HEPES, pH 7.4) in a density of 10^4 cells/5 microliters. The reaction was initiated by mixing 5 microliters drug dilutions with 5 microliters of HEK-EBNA cells in a well, carried out for 30 min at room temperature, and followed by the addition of 5 microliters anti-cAMP acceptor beads in the control buffer with Tween-20 (25 mM NaCl, 0.03% Tween-20, 5 mM HEPES, pH 7.4). After 30 min in the dark at room temperature, the mixtures were incubated with 15 microliters biotinylated-cAMP/streptavidin donor beads in Lysis/Detection buffer (0.1% BSA, 0.3% Tween-20 and 5 mM HEPES, pH 7.4) for 45 min at room temperature. Fluorescence changes were read using a Fusion-alpha microplate reader.
In general terms: cAMP levels reflect the balance of adenylyl cyclase and phosphodiesterase activity.

Assay [2] addresses T1, EP4. In words: Competition binding, EP4.
For the next assay, the target named is EP2 (Homo sapiens (Human), UniProt P43116). The assay is described as follows: Competition binding ([3H]PGE2), EP2. The conditions noted are these: HEK 293 cells stably expressing human EP2 receptors, [3H]PGE2 10 nM. The method, then: Competition binding experiments were performed in a medium containing Hank's balanced salt solution, HEPES 20 mM, pH 7.3, membranes (˜60 μg protein) or 2×10^5 cells from HEK 293 cells stably expressing human EP2 receptors, [^3H]PGE2 (10 nM) and various concentrations of test compounds in a total volume of 300 μl. Reaction mixtures were incubated at 23° C. for 60 min, and were filtered over Whatman GF/B filters under vacuum. Filters were washed three times with 5 ml ice-cold buffer containing 50 mM Tris/HCl (pH 7.3). Non-specific binding was estimated in the presence of excess unlabeled PGE2 (10 μM). Binding data fitted to the binding model for a single class of binding sites, using nonlinear regression analysis. IC50 values thus obtained were converted to Ki using the equation of Ki=(IC50/(1+[L]/KD) where [L] represents PGE2 concentration (10 nM) and KD the dissociation constant for [^3H]PGE2 at human EP2 receptors (40 nM).
EP2, sequence (P43116 whole entry): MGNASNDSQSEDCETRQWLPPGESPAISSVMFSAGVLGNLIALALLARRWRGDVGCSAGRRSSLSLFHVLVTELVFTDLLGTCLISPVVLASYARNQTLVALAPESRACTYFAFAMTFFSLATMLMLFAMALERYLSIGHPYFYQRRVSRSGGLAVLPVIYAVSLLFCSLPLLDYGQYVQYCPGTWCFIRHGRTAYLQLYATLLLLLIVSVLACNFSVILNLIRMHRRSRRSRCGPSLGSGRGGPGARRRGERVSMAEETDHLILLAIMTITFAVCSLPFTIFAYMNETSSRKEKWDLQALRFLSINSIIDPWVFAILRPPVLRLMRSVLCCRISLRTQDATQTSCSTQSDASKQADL

T1 sequence (P35408 whole entry): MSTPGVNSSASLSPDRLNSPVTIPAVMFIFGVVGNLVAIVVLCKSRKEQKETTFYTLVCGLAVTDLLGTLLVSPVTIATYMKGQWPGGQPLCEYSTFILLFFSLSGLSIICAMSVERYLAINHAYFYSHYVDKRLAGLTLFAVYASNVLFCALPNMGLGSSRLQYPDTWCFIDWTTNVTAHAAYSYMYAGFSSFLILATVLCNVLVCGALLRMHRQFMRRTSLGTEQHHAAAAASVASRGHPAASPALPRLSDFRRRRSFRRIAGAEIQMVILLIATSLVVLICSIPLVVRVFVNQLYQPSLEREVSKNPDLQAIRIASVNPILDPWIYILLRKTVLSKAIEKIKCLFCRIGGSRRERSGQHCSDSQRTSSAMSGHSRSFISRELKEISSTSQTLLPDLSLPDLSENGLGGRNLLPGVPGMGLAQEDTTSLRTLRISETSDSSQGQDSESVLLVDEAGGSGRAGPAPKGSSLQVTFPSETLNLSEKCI

For orientation: Ki means the dissociation constant of the complex between target and ligand, obtained from inhibition or displacement. In turn, `O=C(O)c1ccc(CCCN2C(=O)CC[C@@H]2/C=C/C(O)c2cccc(Br)c2)cc1` (single isomer, unassigned) [Example 1] returned an EP4 cAMP EC50 on EP4 [1] greater than 10 µM. Also, on EP4 [2], the Ki stood at 2.04 µM. At EP2, this compound displayed an EP2 Ki greater than 10 µM.
One may read the EC50 as the concentration that produces a half-maximal response. The low end stands for higher potency in that assay, the high end for lower potency in that assay. With `O=C(O)c1ccc(CCCN2C(=O)CC[C@@H]2/C=C/C(O)c2ccccc2)cc1` (single isomer, unassigned) [Example 3], the EC50 at EP4 [1] stood at 9.21 µM. In addition, the EP4 Ki at EP4 [2] is greater than 10 µM. Also, the EP2 Ki on EP2 is greater than 10 µM.
`O=C(O)c1ccc(CCCN2C(=O)CC[C@@H]2/C=C/C(O)c2ccccc2)cc1` (single isomer, unassigned) [Example 4] yielded an EC50 on EP4 [1] of 5.54 µM. At EP4 [2], this compound yielded a Ki of 4.97 µM. Moreover, the EP2 Ki at EP2 was greater than 10 µM.
Take `O=C(O)c1ccc(CCCN2C(=O)CC[C@@H]2/C=C/C(O)c2cccc(-c3ccccc3)c2)cc1` (single isomer, unassigned) [Example 5]: on EP4 [2], the Ki amounted to 8.56 µM. Besides, at EP2, the EP2 Ki was greater than 10 µM.
On EP4 [1], `O=C(O)c1ccc(CCCN2C(=O)CC[C@@H]2/C=C/C(O)c2cccc(-c3ccccc3)c2)cc1` (single isomer, unassigned) [Example 6] had an EP4 cAMP EC50 greater than 10 µM. The same compound had a Ki on EP4 [2] of 6.71 µM. On EP2, the EP2 Ki was greater than 10 µM.
Take `Cc1ccccc1-c1cccc(C(O)/C=C/[C@H]2CCC(=O)N2CCCc2ccc(C(=O)O)cc2)c1` (single isomer, unassigned) [Example 7]: the EC50 at EP4 [1] amounted to 0.014 µM. Further, the Ki at EP4 [2] came to 1.15 µM. For the same compound, on EP2, the EP2 Ki is greater than 10 µM.
The like results for `Cc1ccccc1-c1cccc(C(O)/C=C/[C@H]2CCC(=O)N2CCCc2ccc(C(=O)O)cc2)c1` (single isomer, unassigned) [Example 8] were, in that order, 0.002 µM, 0.159 µM and greater than 10 µM.
The like results for `CCc1cc(Cl)ccc1-c1cccc(C(O)/C=C/[C@H]2CCC(=O)N2CCCc2ccc(C(=O)O)cc2)c1` (single isomer, unassigned) [Example 14] were, in that order, 0.033 µM, 0.216 µM and greater than 10 µM.
The like results for `CCc1cc(Cl)ccc1-c1cccc(C(O)/C=C/[C@H]2CCC(=O)N2CCCc2ccc(C(=O)O)cc2)c1` (single isomer, unassigned) [Example 15] were, in that order, 0.003 µM, 0.006 µM and greater than 10 µM.
Consider `O=C(O)c1ccc(CCCN2C(=O)CC[C@@H]2/C=C/C(O)c2cccc(-c3ccc(Cl)cc3C(F)(F)F)c2)cc1` (single isomer, unassigned) [Example 16], for which, at EP4 [1], the EC50 was 0.087 µM. Moreover, on EP4 [2], the Ki amounted to 0.332 µM. Also, at EP2, the EP2 Ki was greater than 10 µM.
The like results for `O=C(O)c1ccc(CCCN2C(=O)CC[C@@H]2/C=C/C(O)c2cccc(-c3ccc(Cl)cc3C(F)(F)F)c2)cc1` (single isomer, unassigned) [Example 17] were, in that order, 0.003 µM, 0.011 µM and greater than 10 µM.
The like results for `Cc1cc(Cl)cc(C)c1-c1cccc(C(O)/C=C/[C@H]2CCC(=O)N2CCCc2ccc(C(=O)O)cc2)c1` (single isomer, unassigned) [Example 20] were, in that order, 0.138 µM, 0.955 µM and greater than 10 µM.
The like results for `Cc1cc(Cl)cc(C)c1-c1cccc(C(O)/C=C/[C@H]2CCC(=O)N2CCCc2ccc(C(=O)O)cc2)c1` (single isomer, unassigned) [Example 21] were, in that order, 0.002 µM, 0.06 µM and greater than 10 µM.
At EP4 [1], `Cc1c(-c2cccc(C(O)/C=C/[C@H]3CCC(=O)N3CCCc3ccc(C(=O)O)cc3)c2)ccc(Cl)c1Cl` (single isomer, unassigned) [Example 22] registered an EC50 of 0.035 µM. The compound further yielded a Ki on EP4 [2] of 2.34 µM. This compound returned an EP2 Ki on EP2 greater than 10 µM.
On the same counts, the results for `Cc1c(-c2cccc(C(O)/C=C/[C@H]3CCC(=O)N3CCCc3ccc(C(=O)O)cc3)c2)ccc(Cl)c1Cl` (single isomer, unassigned) [Example 23] are 0.003 µM, 0.14 µM and greater than 10 µM.
The like results for `CCCc1cc(Cl)ccc1-c1cccc(C(O)/C=C/[C@H]2CCC(=O)N2CCCc2ccc(C(=O)O)cc2)c1` (single isomer, unassigned) [Example 24] were, in that order, 2.34 µM, 1.31 µM and greater than 10 µM.
As to `CCCc1cc(Cl)ccc1-c1cccc(C(O)/C=C/[C@H]2CCC(=O)N2CCCc2ccc(C(=O)O)cc2)c1` (single isomer, unassigned) [Example 25], a half-maximal effect on EP4 [1] (EC50) was put at 0.063 µM. The compound also came in with a Ki on EP4 [2] of 0.13 µM. For the same compound, the EP2 Ki on EP2 was greater than 10 µM.
At EP4 [1], `Cc1cc(Cl)ccc1-c1cc(F)cc(C(O)/C=C/[C@H]2CCC(=O)N2CCCc2ccc(C(=O)O)cc2)c1` (single isomer, unassigned) [Example 34] came in with an EC50 of 1.74 µM. Moreover, at EP4 [2], the affinity corresponds to a Ki of 4.34 µM. The compound also gave an EP2 Ki at EP2 greater than 10 µM.
Regarding `Cc1cc(Cl)ccc1-c1cc(F)cc(C(O)/C=C/[C@H]2CCC(=O)N2CCCc2ccc(C(=O)O)cc2)c1` (single isomer, unassigned) [Example 35], the EC50 on EP4 [1] is 0.059 µM and 0.099 µM. Further, on EP4 [2], the Ki was 0.352 µM. The compound further had an EP2 Ki on EP2 greater than 10 µM.
`Cc1cc(Cl)ccc1-c1cc(C(O)/C=C/[C@H]2CCC(=O)N2CCCc2ccc(C(=O)O)cc2)ccc1F` (single isomer, unassigned) [Example 36]: at EP4 [1], the EC50 worked out at 1.03 µM. The compound further registered a Ki at EP4 [2] of 4.48 µM. This compound had an EP2 Ki at EP2 greater than 10 µM.
For `Cc1cc(Cl)ccc1-c1cc(C(O)/C=C/[C@H]2CCC(=O)N2CCCc2ccc(C(=O)O)cc2)ccc1F` (single isomer, unassigned) [Example 37], the EC50 on EP4 [1] is 0.123 µM and 0.211 µM.
Consider `Cc1cc(F)ccc1-c1cccc(C(O)/C=C/[C@H]2CCC(=O)N2CCCc2ccc(C(=O)O)cc2)c1` (stereo partly drawn) [Example 11, 4-(3-{2(R)-[(1E)-3-(4′-fluoro-2′-methylbiphenyl-3-yl)-3-hydroxyprop-1-en-1-yl]-5-oxopyrrolidin-1-yl}propyl)benzoic acid], for which the inhibitory constant (Ki) at EP4 [2] is greater than 1.34 µM. Moreover, at EP2, the EP2 Ki was greater than 10 µM.
Consider `Cc1cc(F)ccc1-c1cccc(C(O)/C=C/[C@H]2CCC(=O)N2CCCc2ccc(C(=O)O)cc2)c1` (stereo partly drawn) [Example 12, 4-(3-{2(R)-[(1E)-3-(4′-fluoro-2′-methylbiphenyl-3-yl)-3-hydroxyprop-1-en-1-yl]-5-oxopyrrolidin-1-yl}propyl)benzoic acid], for which the EC50 on EP4 [1] came out at 0.008 µM. Moreover, the Ki on EP4 [2] worked out at 0.053 µM. Further, the EP2 Ki at EP2 is greater than 10 µM.
Consider `Cc1cc(Cl)ccc1-c1cccc(C(O)/C=C/[C@H]2CCC(=O)N2CCCc2ccc(C(=O)O)cc2)c1` (stereo partly drawn) [Example 13, 4-(3-{2(R)-[(1E)-3-(4′-chloro-2′-methylbiphenyl-3-yl)-3-hydroxyprop-1-en-1-yl]-5-oxopyrrolidin-1-yl}propyl)benzoic acid], for which the EC50 on EP4 [1] is 0.004 µM. Besides, the inhibition constant (Ki) came out at 0.023 µM at EP4 [2] and 4.32 µM at EP2.
In turn, `O=C(O)c1ccc(CCCN2C(=O)CC[C@@H]2/C=C/C(O)c2cccc(-c3ccc(Cl)cc3CO)c2)cc1` (stereo partly drawn) [Example 18, 4-[3-(2(R)-{(1E)-3-[4′-chloro-2′-(hydroxymethyl)biphenyl-3-yl]-3-hydroxyprop-1-en-1-yl}-5-oxopyrrolidin-1-yl)propyl]benzoic acid] came in with an EP4 cAMP EC50 on EP4 [1] greater than 10 µM. The EP4 Ki on EP4 [2] is greater than 10 µM. This compound also had an EP2 Ki at EP2 greater than 10 µM.
Take `O=C(O)c1ccc(CCCN2C(=O)CC[C@@H]2/C=C/C(O)c2cccc(-c3ccc(Cl)cc3CO)c2)cc1` (stereo partly drawn) [Example 19, 4-[3-(2(R)-{(1E)-3-[4′-chloro-2′-(hydroxymethyl)biphenyl-3-yl]-3-hydroxyprop-1-en-1-yl}-5-oxopyrrolidin-1-yl)propyl]benzoic acid]: the concentration for a half-maximal effect (EC50) on EP4 [1] is 0.095 µM and 0.165 µM. Besides, at EP4 [2], the affinity corresponds to a Ki of 0.658 µM. The compound also yielded an EP2 Ki on EP2 greater than 10 µM.
On to `CCCCc1cc(Cl)ccc1-c1cccc(C(O)/C=C/[C@H]2CCC(=O)N2CCCc2ccc(C(=O)O)cc2)c1` (stereo partly drawn) [Example 28, 4-(3-{2(R)-[(1E)-3-(2′-butyl-4′-chlorobiphenyl-3-yl)-3-hydroxyprop-1-en-1-yl]-5-oxopyrrolidin-1-yl}propyl)benzoic acid], for which, at EP4 [2], the Ki was 5.16 µM. Moreover, the EP2 Ki on EP2 was greater than 10 µM.
`Cc1cc(Cl)ccc1-c1ccc(C(O)/C=C/[C@H]2CCC(=O)N2CCCc2ccc(C(=O)O)cc2)s1` (stereo partly drawn) [Example 32, 4-[3-(2(R)-{(1E)-3-[5-(4-chloro-2-methylphenyl)thiophen-2-yl]-3-hydroxyprop-1-en-1-yl}-5-oxopyrrolidin-1-yl)propyl]benzoic acid] showed a Ki on EP4 [2] of 4.83 µM. In addition, the EP2 Ki on EP2 was greater than 10 µM.
